Test results taken from patent US20240285575A1, “NANOPARTICLES WITH ANTI-INFLAMMATORY PROPERTIES AND ENHANCED PENETRATION ACROSS THE BIOLOGICAL BARRIERS TO DELIVER ENCAPSULATED DRUGS” (The Board of Trustees of The University of Alabama, priority 2023, published 2024).

Assays:
FHs74 cells = settings: previous study; cited from earlier work
FR on FHs74 cells = assay: Folate receptor blocking studies in FHs74 cells; format: cell-based, human; settings: blocking of P2Ns-NAR uptake
Text: FR Specificity to NAR. The FR-mediated transport of P2Ns-NAR was confirmed by performing blocking studies. Folic acid (FA) strongly binds to FR, with the FA frequently being employed as a targeting ligand on nanoparticles for receptor-mediated drug delivery.^29,30 On the other hand, FA in larger doses is also associated with adverse side effects including toxicity to humans.^16,31,32 The use of NAR as an FR-specific ligand could potentially overcome this limitation and provide a safer alternative for receptor-mediated drug delivery. Selective blockade of FR on FHs74 cells was performed to evaluate the FR-mediated uptake of P2Ns-NAR. Cells were saturated with varying concentrations of blocking agents: antifolate antibody (AB), FA, and MTHFA.

SMILES: Nc1nc2ncc(CNc3ccc(C(=O)N[C@@H](CCC(=O)O)C(=O)O)cc3)nc2c(=O)[nH]1 [FA, Folic acid]
- Time to saturate FHs74 cells (FHs74 cells): less than 1 hour

SMILES: CN1c2c(nc(N)[nH]c2=O)NCC1CNc1ccc(C(=O)N[C@@H](CCC(=O)O)C(=O)O)cc1 (some centres unmarked) [MTHFA, methyltetrahydrofolic acid]
- Concentration of blocking agent needed for blocking levels similar to FA (FR on FHs74 cells): Higher concentrations
